{"source": "the CombiSolv-Exp solvation set (Vermeire and Green 2021)", "test": "solvent given as SMILES", "data": [{"smiles": "Cc1ccccc1Cl", "values": [{"measurement": "solvation free energy, 298 K", "setting": "in O", "value": -1.14, "unit": "kcal/mol"}]}, {"smiles": "CC(C)Cc1ccc(C(C)C(=O)O)cc1", "note": "(stereo unspecified)", "values": [{"measurement": "solvation free energy, 298 K", "setting": "in CC(C)CO", "value": -13.2, "unit": "kcal/mol"}, {"measurement": "solvation free energy, 298 K", "setting": "in CC(C)O", "value": -13.4, "unit": "kcal/mol"}, {"measurement": "solvation free energy, 298 K", "setting": "in CCC(C)O", "value": -13.2, "unit": "kcal/mol"}, {"measurement": "solvation free energy, 298 K", "setting": "in CCCCCCCCCCO", "value": -13, "unit": "kcal/mol"}, {"measurement": "solvation free energy, 298 K", "setting": "in CCCCCCCO", "value": -13.1, "unit": "kcal/mol"}, {"measurement": "solvation free energy, 298 K", "setting": "in CCCCCCO", "value": -13.2, "unit": "kcal/mol"}, {"measurement": "solvation free energy, 298 K", "setting": "in CCCCCO", "value": -13.1, "unit": "kcal/mol"}, {"measurement": "solvation free energy, 298 K", "setting": "in CCCCO", "value": -13.1, "unit": "kcal/mol"}, {"measurement": "solvation free energy, 298 K", "setting": "in CCCO", "value": -13.2, "unit": "kcal/mol"}, {"measurement": "solvation free energy, 298 K", "setting": "in CCO", "value": -13.1, "unit": "kcal/mol"}, {"measurement": "solvation free energy, 298 K", "setting": "in CN(C)C=O", "value": -13.1, "unit": "kcal/mol"}, {"measurement": "solvation free energy, 298 K", "setting": "in CO", "value": -13.1, "unit": "kcal/mol"}, {"measurement": "solvation free energy, 298 K", "setting": "in Clc1ccccc1", "value": -11.9, "unit": "kcal/mol"}, {"measurement": "solvation free energy, 298 K", "setting": "in NC=O", "value": -10.9, "unit": "kcal/mol"}, {"measurement": "solvation free energy, 298 K", "setting": "in O", "value": -7, "unit": "kcal/mol"}]}, {"smiles": "COc1ccc2c(c1)c(CC(=O)O)c(C)n2C(=O)c1ccc(Cl)cc1", "values": [{"measurement": "solvation free energy, 298 K", "setting": "in O", "value": -15.1, "unit": "kcal/mol"}]}, {"smiles": "COC(=O)OC", "values": [{"measurement": "solvation free energy, 298 K", "setting": "in C1CCCCC1", "value": -3.6, "unit": "kcal/mol"}, {"measurement": "solvation free energy, 298 K", "setting": "in CC(Cl)(Cl)Cl", "value": -4.63, "unit": "kcal/mol"}, {"measurement": "solvation free energy, 298 K", "setting": "in CCC1CO1", "value": -4.73, "unit": "kcal/mol"}, {"measurement": "solvation free energy, 298 K", "setting": "in CCCO", "value": -3.72, "unit": "kcal/mol"}, {"measurement": "solvation free energy, 298 K", "setting": "in COC(C)(C)C", "value": -4.24, "unit": "kcal/mol"}, {"measurement": "solvation free energy, 298 K", "setting": "in ClC(Cl)(Cl)Cl", "value": -4.27, "unit": "kcal/mol"}, {"measurement": "solvation free energy, 298 K", "setting": "in ClCCCl", "value": -5.04, "unit": "kcal/mol"}, {"measurement": "solvation free energy, 298 K", "setting": "in O", "value": -3.53, "unit": "kcal/mol"}, {"measurement": "solvation free energy, 298 K", "setting": "in c1ccccc1", "value": -4.66, "unit": "kcal/mol"}]}, {"smiles": "COc1ccccc1", "values": [{"measurement": "solvation free energy, 298 K", "setting": "in CCCCCCC", "value": -5.35, "unit": "kcal/mol"}, {"measurement": "solvation free energy, 298 K", "setting": "in CCCCCCCCCCCCCCCC", "value": -5.21, "unit": "kcal/mol"}, {"measurement": "solvation free energy, 298 K", "setting": "in CCCCCCCCO", "value": -5.46, "unit": "kcal/mol"}, {"measurement": "solvation free energy, 298 K", "setting": "in O", "value": -2.53, "unit": "kcal/mol"}, {"measurement": "solvation free energy, 298 K", "setting": "in [2H]O[2H]", "value": -2.62, "unit": "kcal/mol"}]}, {"smiles": "ClCc1ccccc1", "values": [{"measurement": "solvation free energy, 298 K", "setting": "in C1COCCO1", "value": -7.23, "unit": "kcal/mol"}, {"measurement": "solvation free energy, 298 K", "setting": "in CC(C)(C)O", "value": -6.07, "unit": "kcal/mol"}, {"measurement": "solvation free energy, 298 K", "setting": "in CC(C)O", "value": -5.99, "unit": "kcal/mol"}, {"measurement": "solvation free energy, 298 K", "setting": "in CCCCO", "value": -6.08, "unit": "kcal/mol"}, {"measurement": "solvation free energy, 298 K", "setting": "in CCCO", "value": -6.06, "unit": "kcal/mol"}, {"measurement": "solvation free energy, 298 K", "setting": "in CCO", "value": -6.22, "unit": "kcal/mol"}, {"measurement": "solvation free energy, 298 K", "setting": "in CO", "value": -6.37, "unit": "kcal/mol"}, {"measurement": "solvation free energy, 298 K", "setting": "in O", "value": -1.88, "unit": "kcal/mol"}]}, {"smiles": "N#Cc1ccncc1", "values": [{"measurement": "solvation free energy, 298 K", "setting": "in O", "value": -6.02, "unit": "kcal/mol"}]}, {"smiles": "CCOC(OCC)Oc1ccccc1", "values": [{"measurement": "solvation free energy, 298 K", "setting": "in O", "value": -5.23, "unit": "kcal/mol"}]}, {"smiles": "O=C1CCCCC1", "values": [{"measurement": "solvation free energy, 298 K", "setting": "in CCCCCC", "value": -4.98, "unit": "kcal/mol"}, {"measurement": "solvation free energy, 298 K", "setting": "in CCCCCCC", "value": -5.18, "unit": "kcal/mol"}, {"measurement": "solvation free energy, 298 K", "setting": "in CCCCCCCCCCCCCCCC", "value": -4.97, "unit": "kcal/mol"}, {"measurement": "solvation free energy, 298 K", "setting": "in ClC(Cl)(Cl)Cl", "value": -6.23, "unit": "kcal/mol"}, {"measurement": "solvation free energy, 298 K", "setting": "in ClCCCl", "value": -6.78, "unit": "kcal/mol"}, {"measurement": "solvation free energy, 298 K", "setting": "in O", "value": -4.91, "unit": "kcal/mol"}]}, {"smiles": "COc1cc(C(C)=O)ccc1O", "values": [{"measurement": "solvation free energy, 298 K", "setting": "in CCC(C)=O", "value": -12.2, "unit": "kcal/mol"}, {"measurement": "solvation free energy, 298 K", "setting": "in CCCO", "value": -11.8, "unit": "kcal/mol"}, {"measurement": "solvation free energy, 298 K", "setting": "in Cc1ccccc1", "value": -10.8, "unit": "kcal/mol"}, {"measurement": "solvation free energy, 298 K", "setting": "in ClC=CCl", "value": -12, "unit": "kcal/mol"}]}]}
